Test results: PubChem BioAssay AID651642 (Sanford-Burnham Center for Chemical Genomics, 2012)

What was measured:
HL-1 = assay: cardiomyocyte survival under oxidative or metabolic stress – cell-based, panel, H9c2 and HL-1, H2O2, 2-deoxyglucose, ATP luminescence, SAR follow-up (AID 651642)
H9c2 = assay: as above
[1] = H9c2/HL-1 cardiomyocyte 2-deoxyglucose damage, mean of runs, with 2-deoxyglucose, mean IC50 across panel
[2] = H9c2/HL-1 cardiomyocyte 2-deoxyglucose damage, run 1, with 2-deoxyglucose
[3] = H9c2/HL-1 cardiomyocyte 2-deoxyglucose damage, run 2, with 2-deoxyglucose
[4] = H9c2/HL-1 cardiomyocyte 2-deoxyglucose damage, run 3, with 2-deoxyglucose
[5] = H9c2/HL-1 cardiomyocyte 2-deoxyglucose damage, run 4, with 2-deoxyglucose
[6] = H9c2/HL-1 cardiomyocyte H2O2 oxidative damage, mean of runs, with H2O2, mean IC50 across panel
[7] = H9c2/HL-1 cardiomyocyte H2O2 oxidative damage, run 1, with H2O2
[8] = H9c2/HL-1 cardiomyocyte H2O2 oxidative damage, run 2, with H2O2
[9] = H9c2/HL-1 cardiomyocyte H2O2 oxidative damage, run 3, with H2O2
[10] = H9c2/HL-1 cardiomyocyte H2O2 oxidative damage, run 4, with H2O2

Row | SMILES | IC50 (HL-1; [1]) [µM] | IC50 (HL-1; [2]) [µM] | IC50 (HL-1; [3]) [µM] | IC50 (HL-1; [4]) [µM] | IC50 (HL-1; [5]) [µM] | IC50 (HL-1; [6]) [µM] | IC50 (HL-1; [7]) [µM] | IC50 (HL-1; [8]) [µM] | IC50 (HL-1; [9]) [µM] | IC50 (HL-1; [10]) [µM] | IC50 (H9c2; [1]) [µM] | IC50 (H9c2; [2]) [µM] | IC50 (H9c2; [3]) [µM] | IC50 (H9c2; [4]) [µM] | IC50 (H9c2; [5]) [µM] | IC50 (H9c2; [6]) [µM] | IC50 (H9c2; [7]) [µM] | IC50 (H9c2; [8]) [µM] | IC50 (H9c2; [9]) [µM] | IC50 (H9c2; [10]) [µM]
1 | COc1ccc2nc(-c3cc(OC)c(OC)c(OC)c3)cc(C(=O)NCC(=O)Nc3ccc(C(C)=O)cc3)c2c1 | 4.33 | 2.44 | 3 | 4.63 | 7.24 | 5.81 | 6.12 | 7.42 | 4.42 | 5.28 | 5.3 | 6.66 | 7.3 | 3.59 | 3.65 | 1.52 | 1.96 | 1.99 | 0.928 | 1.23
2 | CCOC(=O)c1cccc(NC(=O)CNC(=O)c2cc(-c3cc(OC)c(OC)c(OC)c3)nc3ccccc23)c1 | – | 2.08 | 2.42 | > 79 | > 79 | – | 9.1 | 17.9 | > 79 | > 79 | – | 8.17 | 9.67 | > 79 | > 79 | – | 2.07 | 2.14 | > 79 | > 79
3 | CCOC(=O)c1cccc(NC(=O)CNC(=O)c2cc(-c3cc(OC)c(OC)c(OC)c3)nc3ccc(Br)cc23)c1 | 1.87 | 1.25 | 1.42 | 1.96 | 2.86 | 2.04 | 2.32 | 2.54 | 1.26 | 2.05 | 4.52 | 4.66 | 6.47 | 3.26 | 3.71 | 1.34 | 1.44 | 1.74 | 0.953 | 1.24
4 | COc1cc(-c2cc(C(=O)NCC(=O)Nc3cccc(C(C)=O)c3)c3cc(F)ccc3n2)cc(OC)c1OC | 6.37 | 3.22 | 3.87 | 8.99 | 9.39 | 6.46 | 5.91 | 5.98 | 5.45 | 8.51 | 6.15 | 7.04 | 8.51 | 4.17 | 4.87 | 1.29 | 1.53 | 1.98 | 0.789 | 0.865
5 | COc1cc(-c2cc(C(=O)NCC(=O)Nc3ccc(C(C)=O)cc3)c3cc(C)ccc3n2)cc(OC)c1OC | 4.22 | 2.65 | 2.65 | 5.75 | 5.85 | 3.93 | 3.02 | 3.88 | 3.17 | 5.63 | 5.83 | 6.75 | 8.1 | 3.5 | 4.96 | 1.67 | 2.04 | 2.05 | 1.09 | 1.49
6 | CCOC(=O)c1cccc(NC(=O)c2cc(-c3cc(OC)c(OC)c(OC)c3)nc3ccccc23)c1 | – | 3.23 | 3.46 | > 79 | > 79 | 4.62 | 3.4 | 4.59 | 3.78 | 6.72 | > 79 | > 79 | > 79 | > 79 | > 79 | – | 3.9 | 4.44 | > 79 | > 79
7 | COc1ccc2c(c1OC)C(=O)N1c3ccccc3C(=O)N(Cc3ccc(F)cc3)C21 (stereo not drawn) | 19 | 6.14 | 10.7 | 17.7 | 41.3 | > 79 | > 79 | > 79 | > 79 | > 79 | > 79 | > 79 | > 79 | > 79 | > 79 | – | > 79 | 8.03 | > 79 | > 79
